Values of other authors in US20210196697A1, “COMBINATION THERAPIES FOR TREATING BIPOLAR DISORDER AND ADHD, AND METHODS FOR USING THE SAME” (PsychNostics, LLC, priority 2017, published 2021).

Legend:
[1] = tested on: SK-N-SH Neuroblastoma Cells; conditions: addition of carbachol to [3H]cytidine-prelabeled cells

For `CN1CCN(C2=Nc3cc(Cl)ccc3Nc3ccccc32)CC1` [clozapine], the “therapeutic level / therapeutic reference range” value (serum / blood plasma) is listed as 200 to 1000 ng/mL.

For `[Li]` [Li, lithium], the therapeutic level (lithium in BD patients) is given as “around 1.2 mM” and the toxic level (lithium in BD patients) is given as “about 2 mM”.

For `C[N+](C)(C)CCOC(N)=O` [carbachol], the “accumulation of labeled CDP-DAG” value [1] is listed as “four to fivefold increase”.

For `COC(=O)C(c1ccccc1)C1CCCCN1` (centres unmarked) [MPH, methylphenidate], the “effect on MPR” value (ADHD patients) is given as “reduces the MPR in a dose dependant manner”.
